Tests used:
[1] = tested on: WT mice; assay: IVC ligation (stasis) model of venous thrombosis with inhaled CO exposure; format: in vivo, mouse; settings: for Venous stasis thrombus burden / Vessel wall leukocyte infiltration: 7 d inhaled CO, 250 ppm for 1 hour twice daily, after IVC ligation, vs normoxia-treated controls
Experimental: Carbon monoxide was focused on for these studies because it is an end product from heme degradation by HO-1.
The effect of CO on large vein thrombogenesis was determined. WT mice undergo venous thrombus induction by stasis or stenosis, followed by exposure to inhaled CO (250 ppm) for one hour twice daily. […] Thrombus burden was assessed as in SA1 indirectly (ultrasound, FIG. 6) and directly (thrombus weight/length), at pre-determined time points after surgery (1 d, 2 d, 7 d, 10 d, 21 d).
The mouse makes an excellent animal model of stasis-induced venous thrombosis. Mice, weighing 20 to 30 g, were anesthetized with an inhalation mixture of isoflurane gas (1.5% to 2%) and oxygen (100%), placed in dorsal recumbency and aseptically prepped for surgery. A midline laparotomy was made, the small bowel was exteriorized from the body cavity and moved slightly to the left of the animal, and then the IVC was directly approached by careful blunt dissection. Blunt dissection was facilitated using a sterile applicator swab and extra delicate half curved tissue forceps. Care was taken in handling mouse tissue due to its fragility. Periodically, the exteriorized bowel was moistened with sterile saline to prevent its desiccation. For consistent thrombus formation (90 to 95%), ligation of the IVC with a 7-0 prolene below the renal veins, ligation of an occasional side venous branch and cauterization of a deep posterior branch was performed if indicated to account for normal variation in anatomy. The laparotomy incision was closed in a 2-layer fashion using a 5-0 nonreactive suture material and VetBond glue (3M). Harvest of the IVC was performed at pre-determined time points.
Inhaled Carbon monoxide exposure: Mice were randomly assigned to the normoxia or carbon monoxide exposure group prior to IVC ligation or stenosis surgery. The carbon monoxide group was exposed to 250 ppm CO at a flow rate of 10 L/min for 1 h twice daily. One cohort of mice received “pre-conditioning” with CO exposure 1 day prior to surgery. To achieve 75% O2, 100% O2 is delivered at a flow rate of 0.5 l/min into a custom-made 1.5-m^3 plastic chamber. Oxygen concentrations were monitored continuously with an oxygen analyzer (Neutronics, Exton, PA), gas lines were filtered with activated charcoal to remove excess ammonia, and calcium chloride used to maintain CO2 levels below 0.05%. A CO analyzer (Ntron model 1100; Neutronics, Exton, PA) were used to monitor CO levels continuously in the chamber.

[2] = tested on: heme oxygenase-1 expression; assay: HO-1 expression in sham-operated WT IVC by quantitative RT-PCR and immunoblotting; format: in vivo, mouse; settings: CO exposure (inhaled CO or CORM), sham-operated WT IVC compared with normoxic controls
Experimental: Also, it was determined that CO exposure (inhaled CO or CORM) induces heme oxygenase-1 expression in sham-operated WT IVC compared with normoxic controls by quantitative RT-PCR and immunoblotting. Therefore, inhaled CO can trigger a venous anti-inflammatory and anti-thrombotic program. Also, whether CO or CORM treatment alone is sufficient to rescue HO-1^−/− mice from exaggerated early venous thrombosis was assessed. HO-1^−/− mice undergo venous stasis or stenosis thrombus induction, followed by CORM or inhaled CO treatment. Thrombus size was measured at the time of expected peak thrombus burden.

[3] = tested on: humans; settings: dose up to 500 ppm, clinical trials; cited from earlier work
[4] = tested on: C57B/6J mice; assay: IVC flow-restriction (stenosis) model of venous thrombosis; format: in vivo, mouse
Experimental: To determine whether carbon monoxide-releasing molecules can be used as a therapeutic in prevention of flow-restriction mediated venous thrombosis (a model of venous thrombosis that mimics human venous clot, unlike IVC ligation), mice were injected with CORM-3 (Sigma SML0496, 10 mg/kg intraperitoneal injection) and subjected to IVC flow-restriction to induce thrombosis. Remarkably, CORM-3 treated mice developed no venous thrombus (0%, n=5) compared with controls (48%, n=21. P=0.001).
“Flow restriction” (Stenosis) thrombosis model: Partial IVC stenosis Model of Venous Thrombosis (FIG. 5) This model is a “flow-restriction” (or “stenosis) model in which the lumen is reduced by ˜90%. This model invokes disturbed flow at the stenosis site as a model for turbulent flow in venous valve pockets, where thrombi frequently develop. It also has applications to human venous “impingement” conditions, such as May Thurner syndrome. Mice, weighing 20 to 30 g, were anesthetized using an inhalation mixture of isoflurane gas (1.5%-2%) and oxygen (100%), placed in dorsal recumbence, and the IVC was approached directly via a midline laparotomy utilizing aseptic technique. A 7-0 Prolene suture (Ethicon, Inc. Somerville, NJ) was fastened around the IVC over a blunted 30-gauge needle (which serves as a spacer). […] Mice were humanely euthanized and thrombus formation assessed 2-7 days after laparotomy.

Row | Compound | Venous stasis thrombus burden [1] | Vessel wall leukocyte infiltration [1] | Venous stasis thrombus burden ([1]; listed as carbon monoxide) | Vessel wall leukocyte infiltration ([1]; listed as carbon monoxide) | Thrombus size at 7 days ([1]; WT mice, thrombus induction by stasis or stenosis, inhaled CO 250 ppm one hour twice daily) | Heme oxygenase-1 expression in IVC [2] | Safety of inhaled CO dose [3] | Protection from venous thrombus compared with controls ([4]; C57B/6J mice treated with CORM-3, VT induction by IVC flow-restriction) | Frequency of clot (venous thrombus) ([4]; CORM-3 10 mg/kg intraperitoneal injection, IVC flow-restriction, n=5, controls 48% (n=21)) [%]
1 | [C-]#[O+] [CO, carbon monoxide] | reduced | reduced | profound reduction | profound reduction | robust reduction | induces | safe | – | –
2 | NCC(=O)O.[CH+]=O.[CH+]=O.[CH+]=O.[Cl][Ru] [CORM-3, tricarbonylchloro(glycinato)ruthenium (II)] | – | – | – | – | – | – | – | protected from venous thrombus | 0

— patent US12029755B2, “Carbon monoxide-based therapies and implantable devices for the treatment of vascular disease” (THE REGENTS OF THE UNIVERSITY OF MICHIGAN, priority 2017, dated 2024)
